Where “and” joins values, the source holds several entries; their conditions need not be identical. Equal values may be shown once.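 Five compound concentrations were applied to cells in 96-well plates for 48 hours; endpoints were derived by simple linear interpolation of the resulting dose-response curve. GI50 marks 50% less growth. TGI denotes the concentration required for complete inhibition of growth.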
How the values were obtained:
Assay in all cases: NCI tumour cell line growth inhibition, 48 h
A498 renal = tested on: A498 renal
BT-549 breast = tested on: BT-549 breast
CAKI-1 renal = tested on: CAKI-1 renal
DU-145 prostate = tested on: DU-145 prostate
NCI/ADR-RES ovarian = tested on: NCI/ADR-RES ovarian
PC-3 prostate = tested on: PC-3 prostate
SF-268 CNS = tested on: SF-268 CNS
SK-OV-3 ovarian = tested on: SK-OV-3 ovarian
MALME-3M melanoma = tested on: MALME-3M melanoma
HS 578T breast = tested on: HS 578T breast

Row | SMILES | TGI (A498 renal) | TGI (CAKI-1 renal) | TGI (PC-3 prostate) [µM] | TGI (SF-268 CNS) | TGI (SK-OV-3 ovarian) | TGI (MALME-3M melanoma) | further results
1 | COc1cc(OC)c2c(=O)cc(-c3ccccc3OCc3ccccc3)oc2c1OC | 69.9 µM | 24.2 µM | 32.5 | 73.7 µM | > 100 µM | – | GI50 (A498 renal): 9.62 µM; GI50 (BT-549 breast): 3.76 µM; TGI (BT-549 breast): 24.6 µM; GI50 (CAKI-1 renal): 3.21 µM; GI50 (DU-145 prostate): 18.5 µM; TGI (DU-145 prostate): > 100 µM; GI50 (NCI/ADR-RES ovarian): 2.96 µM; TGI (NCI/ADR-RES ovarian): 18.6 µM; GI50 (PC-3 prostate): 3.34 µM; GI50 (SF-268 CNS): 18.7 µM; GI50 (SK-OV-3 ovarian): 98 µM
2 | CCOC(=O)[C@@]12C(C)=CC(=O)O[C@]1(C)C1C(=O)NC(=O)C12 (some centres undefined) | > 100 µM | – | – | – | > 100 µM | > 100 µM | –
3 | COc1ccc(Nc2ncnc3ccc(-c4cncc(NS(C)(=O)=O)c4)cc23)cc1Cl | 4.44 µM | – | 16.6 | 16.4 µM | 6.93 µM | 11.2 µM | GI50 (A498 renal): 1.8 µM; GI50 (BT-549 breast): 1.67 µM; TGI (BT-549 breast): 7.12 µM; GI50 (DU-145 prostate): 3.78 µM; TGI (DU-145 prostate): 15.2 µM; GI50 (HS 578T breast): 1.26 µM; TGI (HS 578T breast): 5.18 µM; GI50 (MALME-3M melanoma): 1.55 µM; GI50 (NCI/ADR-RES ovarian): 21.4 µM; TGI (NCI/ADR-RES ovarian): 81.5 µM; GI50 (PC-3 prostate): 2.83 µM; GI50 (SF-268 CNS): 2.3 µM; GI50 (SK-OV-3 ovarian): 2.49 µM
4 | Cc1ccc2oc(=O)c3c(O)c4cccc(OC5OC(C)C6O[C@@H](c7ccccc7)OC6C5OC5OC(C)C(O)C(O)C5O)c4c4oc(=O)c1c2c34 (some centres undefined) | 1.22 µM and 0.95 µM | – | 1.4 | 1.59 µM and 1.71 µM | 0.967 µM and 2.41 µM | 1.58 µM and 2.52 µM | GI50 (A498 renal): 0.167 µM; GI50 (CAKI-1 renal): 0.0415 µM; TGI (DU-145 prostate): 1.27 µM; TGI (HS 578T breast): 1.97 µM; GI50 (MALME-3M melanoma): 0.126 µM; GI50 (SK-OV-3 ovarian): 0.371 µM
5 | CC(C)[P+](c1ccccc1)(c1ccccc1)c1ccccc1 | 74.9 µM | > 100 µM | 34.6 | > 100 µM | > 100 µM | – | GI50 (A498 renal): 9.22 µM; GI50 (BT-549 breast): 5.55 µM; TGI (BT-549 breast): > 100 µM; GI50 (CAKI-1 renal): 50.7 µM; GI50 (DU-145 prostate): 7.29 µM; TGI (DU-145 prostate): > 100 µM; GI50 (HS 578T breast): 13.4 µM; TGI (HS 578T breast): > 100 µM; GI50 (NCI/ADR-RES ovarian): > 100 µM; TGI (NCI/ADR-RES ovarian): > 100 µM; GI50 (PC-3 prostate): 2.42 µM; GI50 (SF-268 CNS): 5.11 µM; GI50 (SK-OV-3 ovarian): 22.4 µM
6 | O=[N+]([O-])c1cc(/C=N\NS(=O)(=O)c2ccc(Cl)cc2)c(O)c([N+](=O)[O-])c1 | 83 µM | > 100 µM | – | > 100 µM | 83.5 µM | > 100 µM | –
7 | CCc1ccc2oc(=O)ccc2c1 | > 100 µM | > 100 µM | > 100 | > 100 µM | – | > 100 µM | TGI (BT-549 breast): > 100 µM; TGI (HS 578T breast): > 100 µM; TGI (NCI/ADR-RES ovarian): > 100 µM
8 | Cc1cc(Cl)cc2c1NC(=O)C2(O)CC(=O)c1ccc(Br)cc1 (centres undefined) | > 70.8 µM | > 100 µM | – | > 100 µM | > 100 µM | > 100 µM | –
9 | CCCC(O)c1cn(-c2cccc(S(=O)(=O)O)c2)nn1 (centres undefined) | > 100 µM | > 100 µM | – | > 100 µM | > 100 µM | > 100 µM | –
10 | CC(/C=C/C(=O)c1sc(C(N)=S)nc1C)=C\c1ccccc1 | > 100 µM | 56.4 µM | – | > 100 µM | > 100 µM | > 100 µM | –
11 | COc1ccc(NC(=O)CC(=O)N/N=C(\C)c2cc3ccccc3oc2=O)cc1 | – | – | – | – | > 100 µM | > 100 µM | –
12 | C1CSC[C@H]2COC[C@@H](CSCCS1)S2 | – | – | > 100 | > 100 µM | – | – | TGI (BT-549 breast): > 100 µM; TGI (DU-145 prostate): > 100 µM; TGI (NCI/ADR-RES ovarian): > 100 µM
13 | CCCCNS(=O)(=O)c1ccc(-c2ccc3c(c2)-c2ccc(S(=O)(=O)NCCCC)cc2S3(=O)=O)cc1 | 26.6 µM | – | – | 31.3 µM | 45.5 µM | 49.2 µM | –
14 | CCCCCCC(=O)C/C(CCC(=O)N(Cc1ccccc1)Cc1ccccc1)=N\NC(N)=O | > 100 µM | > 100 µM | – | > 100 µM | > 100 µM | > 100 µM | –
15 | COc1ccc(Br)c(CN2CCc3ccccc32)c1OS(=O)(=O)c1ccc(C)cc1 | – | – | – | > 100 µM | – | > 100 µM | –
16 | COc1ccc(N2C(=O)[C@@H](N=[N+]=[N-])[C@@H]2[C@H]2COC(C)(C)O2)cc1 | – | > 100 µM | – | > 100 µM | > 100 µM | > 100 µM | –
17 | COc1cc(C)cc(C(=O)/C=C/c2ccccc2)c1O | 33.3 µM | 39.1 µM | 49.8 | 88.1 µM | 83.5 µM | – | TGI (BT-549 breast): 37.8 µM; TGI (DU-145 prostate): 29.4 µM; TGI (HS 578T breast): > 100 µM; TGI (NCI/ADR-RES ovarian): 52 µM
18 | O=C(O)c1c2c(cc3c(=O)c4ccccc4[nH]c13)CCCC2 | – | – | – | > 100 µM | > 100 µM | > 100 µM | –
19 | N#C/C(=C/N1CCN(C(=O)c2ccco2)C1=S)C(=O)Nc1ccc(Cl)cc1 | – | > 50 µM | > 50 | 41 µM | > 50 µM | > 50 µM | GI50 (BT-549 breast): 8.63 µM; TGI (BT-549 breast): 21.9 µM; GI50 (CAKI-1 renal): 13.2 µM; GI50 (DU-145 prostate): 15.9 µM; TGI (DU-145 prostate): > 50 µM; GI50 (MALME-3M melanoma): 21.4 µM; GI50 (NCI/ADR-RES ovarian): 28.1 µM; TGI (NCI/ADR-RES ovarian): > 50 µM; GI50 (PC-3 prostate): 18.9 µM; GI50 (SF-268 CNS): 17.8 µM; GI50 (SK-OV-3 ovarian): 41.2 µM
20 | COc1ccc(-c2cc3ccccc3[nH]c2=O)cc1OC | – | > 100 µM | – | > 100 µM | > 100 µM | > 100 µM | –
21 | CC1=NN(c2ccccc2)C(=O)C12[C@H](c1ccccc1)C2(C#N)C#N (some centres undefined) | 31.6 µM | 16.3 µM | – | 20.6 µM | 32.7 µM | 11.6 µM | –
22 | COc1cc(Cc2c(C)cc(OC)c3[nH]c4ccccc4c23)cc2c1[nH]c1ccccc12 | – | – | – | 24.9 µM | > 25 µM | 12.4 µM | GI50 (MALME-3M melanoma): 4.44 µM; GI50 (SF-268 CNS): 6.97 µM; GI50 (SK-OV-3 ovarian): 8.8 µM
23 | O=C1C(Cl)=C(Cl)C(=O)N1c1ccc(Cl)c(Cl)c1Cl | > 100 µM | 56.2 µM | – | > 100 µM | > 100 µM | > 100 µM | –
24 | Cc1ccc(SSCC(O)C(O)CSSc2ccc(C)cc2)cc1 (centres undefined) | 18 µM | 15.4 µM and 27 µM | – | 19.1 µM and 29.2 µM | 23.7 µM and 43.6 µM | 36 µM and 30.7 µM | GI50 (CAKI-1 renal): 4.04 µM and 13.2 µM; GI50 (SF-268 CNS): 4.6 µM and 10.4 µM; GI50 (SK-OV-3 ovarian): 10.8 µM and 22.8 µM
25 | COc1cc2c(cc1OC)C(C(CBr)CBr)N(C1CCCC1)CC2 (centres undefined) | > 100 µM | > 100 µM | – | > 100 µM | > 100 µM | > 100 µM | –
26 | COC(=O)/C(C#N)=C1\CCC(OC)N1C (centres undefined) | – | > 100 µM | – | > 100 µM | > 100 µM | > 100 µM | –
27 | CCC1CCCCN1CC(C(C)=O)C(c1ccccc1)c1c(O)c2ccccc2oc1=O (centres undefined) | > 100 µM | > 100 µM | – | > 100 µM | > 100 µM | > 100 µM | –
28 | O=C1CC(c2cccc(Cl)c2)Oc2ccccc21 (centres undefined) | 46.3 µM | 23.3 µM | 30.4 | 50.6 µM | 46 µM | – | TGI (DU-145 prostate): 38.2 µM; TGI (HS 578T breast): 61.8 µM; TGI (NCI/ADR-RES ovarian): 48.9 µM

Source: PubChem BioAssay (NCI)
